Read-outs that look alike come from different tables or passages of the source. Ends that are not written are not given here. Peptide text beside a SMILES is read from it.
T1: Hj.Ste2, Ste2-like mating GPCR of Hypocrea jecorina (Hypocrea jecorina)
T1 chain: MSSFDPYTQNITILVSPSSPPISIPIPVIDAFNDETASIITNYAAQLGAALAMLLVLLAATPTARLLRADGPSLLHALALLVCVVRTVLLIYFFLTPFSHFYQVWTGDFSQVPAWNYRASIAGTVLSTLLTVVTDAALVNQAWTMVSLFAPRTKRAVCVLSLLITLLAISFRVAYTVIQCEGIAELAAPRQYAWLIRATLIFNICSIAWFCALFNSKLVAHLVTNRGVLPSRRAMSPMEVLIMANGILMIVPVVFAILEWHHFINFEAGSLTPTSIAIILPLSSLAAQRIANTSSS

T2: Bc.Ste2, Ste2-like mating GPCR of Botrytis cinerea (Botrytis cinerea)
T2 chain: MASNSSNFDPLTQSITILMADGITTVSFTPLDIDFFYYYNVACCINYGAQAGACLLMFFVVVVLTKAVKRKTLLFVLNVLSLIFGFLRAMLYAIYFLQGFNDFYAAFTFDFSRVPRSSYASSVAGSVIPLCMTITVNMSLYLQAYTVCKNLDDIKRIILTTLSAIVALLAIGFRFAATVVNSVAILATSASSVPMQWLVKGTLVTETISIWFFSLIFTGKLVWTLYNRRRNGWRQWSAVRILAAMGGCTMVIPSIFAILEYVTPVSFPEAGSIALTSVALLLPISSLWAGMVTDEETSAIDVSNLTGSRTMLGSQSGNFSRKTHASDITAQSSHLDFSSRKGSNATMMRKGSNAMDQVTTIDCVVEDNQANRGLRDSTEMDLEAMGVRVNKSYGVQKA

T3: Le.Ste2, Ste2-like mating GPCR of Lodderomyces elongisporous (Lodderomyces elongisporous)
T3 chain: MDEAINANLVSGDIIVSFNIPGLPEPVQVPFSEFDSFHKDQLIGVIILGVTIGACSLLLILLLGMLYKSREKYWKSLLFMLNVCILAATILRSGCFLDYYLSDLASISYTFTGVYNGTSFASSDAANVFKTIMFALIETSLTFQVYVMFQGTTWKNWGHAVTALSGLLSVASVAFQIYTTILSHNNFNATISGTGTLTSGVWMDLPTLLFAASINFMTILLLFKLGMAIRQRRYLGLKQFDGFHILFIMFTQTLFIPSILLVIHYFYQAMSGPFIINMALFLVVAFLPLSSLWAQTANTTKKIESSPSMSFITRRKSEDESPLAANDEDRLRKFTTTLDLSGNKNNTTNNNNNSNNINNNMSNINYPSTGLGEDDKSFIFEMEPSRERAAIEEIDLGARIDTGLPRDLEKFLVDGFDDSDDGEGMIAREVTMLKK

T4: Bb.Ste2, Ste2-like mating GPCR of Beauvaria bassiana (Beauvaria bassiana)
T4 chain: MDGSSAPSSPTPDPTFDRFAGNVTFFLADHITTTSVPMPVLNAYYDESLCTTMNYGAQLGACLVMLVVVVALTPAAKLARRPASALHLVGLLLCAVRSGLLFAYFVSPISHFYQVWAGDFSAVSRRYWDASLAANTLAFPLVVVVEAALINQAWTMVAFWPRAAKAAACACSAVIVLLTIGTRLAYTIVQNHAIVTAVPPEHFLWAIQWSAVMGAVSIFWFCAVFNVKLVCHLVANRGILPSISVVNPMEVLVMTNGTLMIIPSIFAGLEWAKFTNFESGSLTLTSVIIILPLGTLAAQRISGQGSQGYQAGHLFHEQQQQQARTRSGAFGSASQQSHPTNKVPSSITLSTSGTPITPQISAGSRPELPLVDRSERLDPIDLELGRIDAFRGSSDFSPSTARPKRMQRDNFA


What was measured:
[1] = test system: Ste2-like fungal mating GPCRs expressed in S. cerevisiae; test: GPCR on-off activity and dose response assay (FUS1 promoter coRFP fluorescent reporter, strain JTy014, synthetic peptide ligand); assay type: cell-based, Ascomycete fungi (expressed in S. cerevisiae); parameters: EC50: unit: log10 M; conditions: for Hill Slope: Hill slope of 4-parameter fit; for Bttm: bottom of 4-parameter fit of the fluorescence dose response curve (basal activation); for Fold Change: fold-change activation from Top and Bttm of the fit; for Span: span of 4-parameter fit of the fluorescence dose response curve; for Top: top of 4-parameter fit of the fluorescence dose response curve (maximal activation)
Description: GPCR on-off activity and dose response assay. GPCR activity and response to increasing dosage of synthetic peptide ligand was measured in strain JTy014 using the genomically integrated FUS1-promoter controlled coRFP as a fluorescent reporter. JTy014 strains carrying the appropriate GPCR expression plasmid were assayed in 96-well microtiter plates using 200 μl total volume, cultured at 30° C. and 800 RPM. Cells were seeded at an A600 of 0.3 (Note: all herein reported cell density values are based on A600 measurements in 96-well plates of a 200 μl volume of cultures with a path length of ˜0.3 cm performed in an Infinite M200 plate reader from Tecan) in SC media lacking uracil (selective component). All measurements were performed in triplicates. RFP fluorescence (excitation: 588 nm, emission: 620 nm) and culture turbidity (A600) were measured after 8 hours using an Infinite M200 plate reader (Tecan). Since the optical density values were outside the linear range of the photodetector, all optical density values were first corrected using the following formula to give true optical density values: […]
where Ameas is the measured optical density, Asat is the saturation value of the photodetector and k is the true optical density at which the detector reaches half saturation of the measured optical density^36. Dose-response was measured at different concentrations (11 five-fold dilutions in H2O starting at 40 μM peptide, H2O was used as “no peptide” control) of the appropriate synthetic peptide ligand. All fluorescence values were normalized by the A600, and plotted against the log(10)-converted peptide concentrations. Data were fit to a four-parameter non-linear regression model using Prism (GraphPad) in order to extract GPCR-specific values for basal activation, maximal activation, EC50 and the Hill coefficient. Fold-activation was calculated for each GPCR as the maximum A600-normalized fluorescence of peptide-treated cells divided by the A600 normalized fluorescence value of water-treated cells.

[2] = molecular target: T1, Hj.Ste2, Ste2-like mating GPCR of …; test: cell-based or functional assay
[3] = molecular target: T2, Bc.Ste2, Ste2-like mating GPCR of …; test: cell-based or functional assay
[4] = molecular target: T3, Le.Ste2, Ste2-like mating GPCR of …; test: cell-based or functional assay
[5] = molecular target: T4, Bb.Ste2, Ste2-like mating GPCR of …; test: cell-based or functional assay
[6] = peptide/GPCR pair, synthetic cognate peptide, fluorescence read-out, 4-parameter fit of dose response curves (FIG. 6), values given as negative (log) numbers

| Molecule | Hill Slope [1] | Bttm [1] | Fold Change [1] | EC50 [1, 6] | Span [1] | Top [1] | other results |
| --- | --- | --- | --- | --- | --- | --- | --- |
| H-WSWITLRPGQPIF-OH [Kl] | 0.8 | 37.2 | 6.0 | −7.3 | 185.9 | 223.1 |  |
| H-NWHWLRLDPGQPLY-OH [Sca] | 0.7 | 24.3 | 6.4 | −8.1 | 131.1 | 155.4 |  |
| H-WHWVRLRKGQGLF-OH [Cg] | 2.4 | 30.5 | 7.0 | −5.9 | 183.0 | 213.6 |  |
| NCCCC[C@H](NC(=O)[C@H](Cc1c[nH]c2ccccc12)NC(=O)[C@H](Cc1c[nH]c2ccccc12)NC(=O)[C@H](CS)NC(=O)[C@@H](N)Cc1c[nH]c2ccccc12)C(=O)NCC(=O)N[C@@H](CCC(N)=O)C(=O)N1CCC[C@H]1C(=O)N[C@@H](CS)C(=O)N[C@@H](Cc1c[nH]c2ccccc12)C(=O)O [Fg] (H-WCWWKGQPCW-OH) | 1.3 | 29.2 | 8.0 | −7.1 | 203.0 | 232.2 |  |
| H-KFKFRLTRYGWFSPN-OH [Ct] | 1.2 | 32.0 | 5.2 | −8.2 | 134.6 | 166.7 |  |
| S. cerevisiae Ste2: natural S. cerevisiae mating GPCR; value is its sensitivity to its cognate peptide ligand |  |  |  |  |  |  | EC50 ([1]; cognate synthetic peptide, fluorescence/A600 after 8 hours, four-parameter fit, read-out: EC50 (sensitivity of the GPCR for its cognate ligand)): 1.25 nM |
| H-KPHWTTYGYYEPQ-OH [Cp] | 0.8 | 36.2 | 7.0 | −8.5 | 217.8 | 254.0 |  |
| H-KWGWLRFFPGEPFV-OH [Cau] | 0.8 | 50.6 | 6.7 | −8.1 | 286.3 | 336.9 |  |
| FSWNYRLKWQPIS [Cn] | 1.1 | 29.7 | 5.1 | −7.4 | 122.5 | 152.2 |  |
| CC[C@H](C)[C@H](NC(=O)[C@H](Cc1c[nH]c2ccccc12)NC(=O)CN)C(=O)NCC(=O)N[C@@H](CCCNC(=N)N)C(=O)N[C@@H](CS)C(=O)NCC(=O)N[C@H](C(=O)N1CCC[C@H]1C(=O)NCC(=O)N[C@@H](CO)C(=O)N[C@@H](CO)C(=O)N[C@@H](CS)C(=O)O)C(C)C [Bm] (H-GWIGRCGVPGSSC-OH; N-terminus and C-terminus assumed) | 1.2 | 30.3 | 5.2 | −6.7 | 128.4 | 158.8 |  |
| She. Ste2: genome-mined mating GPCR activated by near-cognate peptide with two additional N-terminal residues (protein) MKPAAGPASSPFDPFNQTFYLTGPDNTTVPVSVPQVDYIWHYIIGTSINYGSQIGACLLMLLVMLTLTSKSRFSRAATLINVASLLIGVIRCVLLAVYFTSSLTELYALFVGDYSQVRRSDLCVSAVATFFSLPQLVLIEAALFLQAYSMIKMWPSLWRAVVLAMSVVVAVCAIGFKFASVVMRMRSTLTLDDSLDFWLVEVDLAFTATTIFWFCFIYIIRLVIHMWEYRSILPPMGSVSAMEVLVMTNGALMLVPVIFAAIEINGLSSFESGSLVHTSVIVLLPLGSLIAQAMTRPDGYVQRTNTSGASGASGAHPGRNGSGHGGHGGAYSRAMTNTLNTLDTLDTVDSKTSIMHHHHHHHRNHSNGMSKTKANSGTWSHASDANSTNAMISGGIATQVRIQANQSTLGNTGMSGGSGAPNSHTRNNSLAAMEPVEKQLHDIDATPLSASDCRVWVDREVEVRRDMV |  |  |  |  |  |  | activation by alternative near-cognate peptide ligand candidates ([1]; 40 μM synthetic peptide ligand, 8 hours): can be activated |
| WCYRIGEPCW (modifications not checked) [Hj peptide ligand #1 (Table 3: …)] |  |  |  |  |  |  | Bttm (FUS1p-RFP reporter) (fluorescence/A600 (not given)) [2]: 53; EC50 (FUS1p-RFP reporter) (log10 M (not given)) [2]: -7.8; Fold Change (FUS1p-RFP reporter) [2]: 8.1 fold; Span (FUS1p-RFP reporter) (fluorescence/A600 (not given)) [2]: 376; Top (FUS1p-RFP reporter) (fluorescence/A600 (not given)) [2]: 430 |
| WCGRPGQPC [Bc peptide ligand #1 WCGRPGQPC] |  |  |  |  |  |  | Bttm (FUS1p-RFP reporter) [3]: 28.6 fluorescence/A600 (not printed); EC50 (FUS1p-RFP reporter) [3]: -8.1 log10 M (not printed); Fold Change (FUS1p-RFP reporter) [3]: 12.3 fold; Span (FUS1p-RFP reporter) [3]: 323 fluorescence/A600 (not printed); Top (FUS1p-RFP reporter) [3]: 352 fluorescence/A600 (not printed) |
| WMWTRYGRFSPV [Le peptide ligand #1 WMWTRYGRFSPV] |  |  |  |  |  |  | Bttm (FUS1p-RFP reporter) [4]: 22.9 fluorescence/A600 (not printed); EC50 (FUS1p-RFP reporter) [4]: -7.7 log10 M (not printed); Fold Change (FUS1p-RFP reporter) [4]: 18 fold; Span (FUS1p-RFP reporter) [4]: 390 fluorescence/A600 (not printed); Top (FUS1p-RFP reporter) [4]: 412 fluorescence/A600 (not printed) |
| WCMRPGQPCW [Bb peptide ligand #1 WCMRPGQPCW] |  |  |  |  |  |  | Bttm (FUS1p-RFP reporter) [5]: 25.2 fluorescence/A600 (not printed); EC50 (FUS1p-RFP reporter) [5]: -8.5 log10 M (not printed); Fold Change (FUS1p-RFP reporter) [5]: 9.7 fold; Span (FUS1p-RFP reporter) [5]: 219 fluorescence/A600 (not printed); Top (FUS1p-RFP reporter) [5]: 244 fluorescence/A600 (not printed) |

From patent US20220119825A1, “SCALABLE PEPTIDE-GPCR INT[…] SYSTEMS” (THE TRUSTEES OF COLUMBIA UNIVERSITY IN THE CITY OF NEW YORK, priority 2019, published 2022)
